In ChEMBL document CHEMBL1201862, “PubChem BioAssay data set” (2004):
Calls of active or inactive are those of the source.

Assays:
[1] = system: CHO; experiment: CHO cell viability loss, potency – luminescence, cytotoxicity control for TLR9-MyD88 binding inhibitor project, dose response (AID 588339); format: functional, cell-based, hamster; details: Cricetulus griseus;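 also: CHO cells stably coexpressing TLR9 and MyD88 fusions from primary screen; compound exposure lasted 48 hours before viability readout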
[2] = biological target: T1, Endoribonuclease toxin MazF (Escherichia coli K-12, UniProt P0AE70); experiment: activation of MazEF endoribonuclease cleavage – biochemical, fluorescence, single-stranded RNA substrate, uHTS hits, dose response (AID 588481); format: functional
T1 sequence (P0AE70 whole entry): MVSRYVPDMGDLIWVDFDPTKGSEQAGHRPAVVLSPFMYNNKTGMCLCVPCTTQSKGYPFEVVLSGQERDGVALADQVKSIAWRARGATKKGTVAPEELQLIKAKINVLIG

[3] = biological target: Beta Lactamase (Pseudomonas aeruginosa, UniProt Q932Y6); experiment: BLA reporter interference, concentration series – BLA reporter cells, FRET fluorescence, artefact control for TLR9-MyD88 binding inhibitor project, dose response (AID 588341); format: cell-based;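 also: cell based assay in CHO-K1 cells stably expressing beta-lactamase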
Sequence of Beta Lactamase (Q932Y6 whole entry): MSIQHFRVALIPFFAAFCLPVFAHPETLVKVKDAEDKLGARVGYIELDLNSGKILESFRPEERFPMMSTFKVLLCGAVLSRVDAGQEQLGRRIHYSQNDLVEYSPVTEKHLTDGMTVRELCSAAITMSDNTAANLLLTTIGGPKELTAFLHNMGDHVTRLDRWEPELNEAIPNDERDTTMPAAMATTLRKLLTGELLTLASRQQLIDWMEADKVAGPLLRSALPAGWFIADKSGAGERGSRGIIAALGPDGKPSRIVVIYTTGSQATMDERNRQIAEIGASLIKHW

[4] = biological target: T1, Endoribonuclease toxin MazF; experiment: substrate-only fluorescence increase artefacts – biochemical, single-stranded RNase substrate, counter-screen for MazEF activator project, dose response (AID 588502); format: functional
[5] = biological target: T2, Tyrosine-protein phosphatase non-receptor type 7 (Homo sapiens, UniProt P35236); format: functional
T2 sequence (P35236 whole entry): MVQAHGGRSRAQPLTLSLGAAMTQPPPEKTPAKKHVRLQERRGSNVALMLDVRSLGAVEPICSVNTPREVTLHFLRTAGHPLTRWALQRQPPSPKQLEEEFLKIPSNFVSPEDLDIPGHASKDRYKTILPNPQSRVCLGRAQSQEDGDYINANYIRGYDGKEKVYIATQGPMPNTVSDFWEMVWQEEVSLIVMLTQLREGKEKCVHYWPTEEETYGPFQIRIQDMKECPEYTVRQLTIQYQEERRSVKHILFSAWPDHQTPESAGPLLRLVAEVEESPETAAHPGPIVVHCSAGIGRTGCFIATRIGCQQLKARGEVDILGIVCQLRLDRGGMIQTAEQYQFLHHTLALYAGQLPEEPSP

[6] = biological target: T3, Bcl-2-like protein 10 (Homo sapiens, UniProt Q9HD36); experiment: Bcl-B/TR3 peptide binding disruption – biochemical, fluorescence polarization, FITC-TR3 peptide, selectivity assay for Bfl-1 inhibitor project, primary screen (AID 748);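 also: fluorescence polarization from a fluorescein-labelled TR3 peptide binding purified Bcl-B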
T3 sequence (Q9HD36 whole entry): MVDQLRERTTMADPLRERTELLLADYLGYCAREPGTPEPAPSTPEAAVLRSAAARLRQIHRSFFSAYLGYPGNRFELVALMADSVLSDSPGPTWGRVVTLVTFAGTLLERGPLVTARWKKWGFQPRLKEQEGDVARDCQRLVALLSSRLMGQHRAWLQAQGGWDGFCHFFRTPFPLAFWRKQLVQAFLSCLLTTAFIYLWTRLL

[7] = biological target: Glyceraldehyde-3-phosphate dehydrogenase (Homo sapiens, UniProt P04406)
Sequence of Glyceraldehyde-3-phosphate dehydrogenase (P04406 whole entry): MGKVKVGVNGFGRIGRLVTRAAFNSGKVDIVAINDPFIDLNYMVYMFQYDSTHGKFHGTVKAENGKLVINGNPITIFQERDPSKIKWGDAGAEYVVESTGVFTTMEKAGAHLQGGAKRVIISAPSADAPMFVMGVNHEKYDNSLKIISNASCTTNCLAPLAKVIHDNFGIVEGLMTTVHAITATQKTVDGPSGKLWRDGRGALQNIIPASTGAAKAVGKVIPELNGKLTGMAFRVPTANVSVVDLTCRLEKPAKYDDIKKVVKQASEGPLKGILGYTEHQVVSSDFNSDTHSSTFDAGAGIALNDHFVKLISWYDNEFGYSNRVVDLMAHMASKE

[8] = biological target: T4, Estrogen receptor beta (Homo sapiens, UniProt Q92731);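 also: recombinant ER-beta bound to coactivator SRC1 peptide in presence of estradiol agonist; inhibitors block coactivator peptide binding and lower the FRET signal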
T4 sequence (Q92731 whole entry): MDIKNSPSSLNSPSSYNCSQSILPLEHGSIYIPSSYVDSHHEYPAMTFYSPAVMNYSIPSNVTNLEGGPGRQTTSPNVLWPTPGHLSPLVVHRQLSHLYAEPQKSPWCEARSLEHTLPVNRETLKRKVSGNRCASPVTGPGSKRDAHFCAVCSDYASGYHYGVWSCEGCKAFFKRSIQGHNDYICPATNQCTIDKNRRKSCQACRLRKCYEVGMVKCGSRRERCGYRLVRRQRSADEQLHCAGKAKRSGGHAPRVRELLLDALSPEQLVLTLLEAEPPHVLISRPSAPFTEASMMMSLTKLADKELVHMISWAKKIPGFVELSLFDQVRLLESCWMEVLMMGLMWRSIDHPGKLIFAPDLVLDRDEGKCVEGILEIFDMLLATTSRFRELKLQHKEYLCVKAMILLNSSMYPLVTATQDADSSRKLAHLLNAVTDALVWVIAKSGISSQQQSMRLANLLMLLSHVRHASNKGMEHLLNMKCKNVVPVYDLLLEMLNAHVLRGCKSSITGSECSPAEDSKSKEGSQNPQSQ

[9] = biological target: T4, Estrogen receptor beta; experiment: blockers of SRC-3 recruitment to ERβ – biochemical, ELISA, streptavidin-HRP readout, orthogonal assay, confirmation (AID 1060)
[10] = biological target: T5, Dual specificity protein phosphatase 6 (Rattus norvegicus, UniProt Q64346)
T5 sequence (Q64346 whole entry): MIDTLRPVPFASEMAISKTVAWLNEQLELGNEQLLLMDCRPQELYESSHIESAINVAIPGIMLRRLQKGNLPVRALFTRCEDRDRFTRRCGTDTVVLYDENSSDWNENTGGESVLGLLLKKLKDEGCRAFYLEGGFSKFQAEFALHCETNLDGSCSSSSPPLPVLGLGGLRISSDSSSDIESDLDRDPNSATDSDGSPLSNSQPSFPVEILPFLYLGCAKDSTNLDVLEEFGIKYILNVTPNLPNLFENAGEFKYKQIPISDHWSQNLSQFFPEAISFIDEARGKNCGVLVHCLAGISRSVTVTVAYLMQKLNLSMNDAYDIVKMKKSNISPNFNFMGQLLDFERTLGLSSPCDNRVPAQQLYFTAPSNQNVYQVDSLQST

[11] = biological target: T5, Dual specificity protein phosphatase 6; format: functional
[12] = biological target: T6, Carboxy-terminal domain RNA polymerase II polypeptide A small phosphatase 1 (Homo sapiens, UniProt Q9GZU7); experiment: CTDSP1 inhibitors, concentration-response, biochemical, absorbance readout, ultra-high-throughput screen actives (AID 540297); format: functional
T6 sequence (Q9GZU7 whole entry): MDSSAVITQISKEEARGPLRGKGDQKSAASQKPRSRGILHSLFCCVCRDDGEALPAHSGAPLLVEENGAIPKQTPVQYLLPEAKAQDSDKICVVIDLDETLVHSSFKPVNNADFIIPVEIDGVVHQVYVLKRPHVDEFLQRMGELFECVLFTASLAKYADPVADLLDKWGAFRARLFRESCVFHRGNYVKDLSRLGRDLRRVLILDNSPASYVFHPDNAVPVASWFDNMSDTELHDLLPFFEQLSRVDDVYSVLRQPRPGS

[13] = system: HEK293; experiment: EBV LMP1 TES2 canonical NF-kB signalling blockers – cell-based, HEK293, luciferase, cherry-pick, dose response (AID 588343); format: functional; details: Homo sapiens
[14] = biological target: Latent membrane protein 1 (Human herpesvirus 4 (strain B95-8), UniProt P03230); experiment: LMP1 TES1 pathway selectivity over dsRED control – imaging, HEK293T, dual-color eGFP/dsRED, cherry-picks, selectivity assay for LMP1 NF-kB inhibitor project, dose response (AID 588398); format: functional, cell-based
Sequence of Latent membrane protein 1 (P03230 whole entry): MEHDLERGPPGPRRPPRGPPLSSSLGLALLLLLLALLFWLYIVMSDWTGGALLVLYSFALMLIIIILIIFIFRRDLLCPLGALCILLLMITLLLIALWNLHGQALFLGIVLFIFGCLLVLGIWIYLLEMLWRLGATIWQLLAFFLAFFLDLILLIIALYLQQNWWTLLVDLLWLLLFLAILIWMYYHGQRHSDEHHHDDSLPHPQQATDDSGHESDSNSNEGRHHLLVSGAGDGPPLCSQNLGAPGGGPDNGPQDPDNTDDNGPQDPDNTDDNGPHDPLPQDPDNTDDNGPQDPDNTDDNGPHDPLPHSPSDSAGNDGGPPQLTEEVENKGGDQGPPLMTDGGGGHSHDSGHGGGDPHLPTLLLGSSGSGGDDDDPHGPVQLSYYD

[15] = system: INS1; experiment: INS-1E survival protection against cytokine death – cell-based, luminescence, retest, dose response (AID 449756); format: functional; details: Rattus norvegicus;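 also: cell death triggered by IL-1 beta plus TNF-alpha plus IFN-gamma mixture; protective hits raise ATP signal compared with cytokine alone wells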
[16] = reduction of Shn3 3'UTR-driven luciferase in osteoblasts – cell-based, Clone20 osteoblasts, firefly luciferase, cherry-picked, dose response (AID 624132); format: functional;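 also: firefly luciferase luminescence from reporter carrying the Shn3 3'UTR in osteoblasts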
[17] = loss of viability in HepG2 cells – cell-based, CellTiter-Glo, cherry-picked, cytotoxicity control for Shn3 inhibitor project, dose response (AID 624134); format: functional
[18] = non-specific 3'UTR reporter inhibition in Clone20-Shn3RL – cell-based, Renilla luciferase, cherry-picked, counter-screen for Shn3 inhibitor project, dose response (AID 624133); format: functional
[19] = biological target: T7, Cytochrome P450 1A2 (Homo sapiens, UniProt P05177);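 also: PubChem cytochrome P450 panel assay, CYP1A2 panel member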
T7 sequence (P05177 whole entry): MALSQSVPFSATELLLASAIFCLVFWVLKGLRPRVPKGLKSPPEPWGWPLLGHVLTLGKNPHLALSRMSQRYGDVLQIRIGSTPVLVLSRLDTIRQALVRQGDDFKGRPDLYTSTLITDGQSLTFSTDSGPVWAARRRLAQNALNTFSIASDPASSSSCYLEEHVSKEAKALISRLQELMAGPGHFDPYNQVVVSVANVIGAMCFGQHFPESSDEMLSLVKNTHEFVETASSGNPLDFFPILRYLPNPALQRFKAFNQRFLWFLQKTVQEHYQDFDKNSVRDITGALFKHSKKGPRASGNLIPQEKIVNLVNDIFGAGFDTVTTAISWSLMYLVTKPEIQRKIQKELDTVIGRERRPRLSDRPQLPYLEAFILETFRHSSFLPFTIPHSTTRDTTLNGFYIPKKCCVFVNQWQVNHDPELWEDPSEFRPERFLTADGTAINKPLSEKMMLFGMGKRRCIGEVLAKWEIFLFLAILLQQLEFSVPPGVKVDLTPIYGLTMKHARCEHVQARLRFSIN

[20] = biological target: Cytochrome P450 3A4 (Homo sapiens, UniProt P08684);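 also: CYP3A4 tested as one member of a cytochrome P450 panel screen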
Sequence of Cytochrome P450 3A4 (P08684 whole entry): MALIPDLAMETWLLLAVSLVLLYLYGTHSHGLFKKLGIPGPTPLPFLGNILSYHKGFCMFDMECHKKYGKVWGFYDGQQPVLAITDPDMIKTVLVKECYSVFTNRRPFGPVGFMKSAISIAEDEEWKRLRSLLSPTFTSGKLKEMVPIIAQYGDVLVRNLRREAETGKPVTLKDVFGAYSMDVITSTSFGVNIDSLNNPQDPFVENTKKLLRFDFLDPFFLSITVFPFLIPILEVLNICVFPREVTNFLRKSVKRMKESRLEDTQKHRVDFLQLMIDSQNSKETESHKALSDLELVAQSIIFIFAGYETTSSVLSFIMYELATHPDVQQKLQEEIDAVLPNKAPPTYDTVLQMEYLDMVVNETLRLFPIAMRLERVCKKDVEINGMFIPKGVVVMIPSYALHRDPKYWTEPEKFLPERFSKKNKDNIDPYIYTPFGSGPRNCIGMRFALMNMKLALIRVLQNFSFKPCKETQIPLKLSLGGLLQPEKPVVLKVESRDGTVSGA

[21] = biological target: Cytochrome P450 2C9 (Homo sapiens, UniProt P11712)
Sequence of Cytochrome P450 2C9 (P11712 whole entry): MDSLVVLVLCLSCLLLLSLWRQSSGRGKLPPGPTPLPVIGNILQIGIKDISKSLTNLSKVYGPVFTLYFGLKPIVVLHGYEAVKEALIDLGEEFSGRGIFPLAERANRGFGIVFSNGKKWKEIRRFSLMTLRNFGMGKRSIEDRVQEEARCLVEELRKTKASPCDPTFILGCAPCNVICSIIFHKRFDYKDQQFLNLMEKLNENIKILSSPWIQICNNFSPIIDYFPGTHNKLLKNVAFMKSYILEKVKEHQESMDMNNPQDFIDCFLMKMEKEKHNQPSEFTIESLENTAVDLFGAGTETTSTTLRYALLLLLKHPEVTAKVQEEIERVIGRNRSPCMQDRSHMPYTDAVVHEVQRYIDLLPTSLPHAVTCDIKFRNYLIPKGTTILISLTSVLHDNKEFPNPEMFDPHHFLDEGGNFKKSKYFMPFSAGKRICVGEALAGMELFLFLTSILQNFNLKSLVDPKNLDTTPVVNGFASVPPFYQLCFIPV

[22] = biological target: Cytochrome P450 2D6 (Homo sapiens, UniProt P10635);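 also: CYP2D6 member of a cytochrome P450 panel assay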
Sequence of Cytochrome P450 2D6 (P10635 whole entry): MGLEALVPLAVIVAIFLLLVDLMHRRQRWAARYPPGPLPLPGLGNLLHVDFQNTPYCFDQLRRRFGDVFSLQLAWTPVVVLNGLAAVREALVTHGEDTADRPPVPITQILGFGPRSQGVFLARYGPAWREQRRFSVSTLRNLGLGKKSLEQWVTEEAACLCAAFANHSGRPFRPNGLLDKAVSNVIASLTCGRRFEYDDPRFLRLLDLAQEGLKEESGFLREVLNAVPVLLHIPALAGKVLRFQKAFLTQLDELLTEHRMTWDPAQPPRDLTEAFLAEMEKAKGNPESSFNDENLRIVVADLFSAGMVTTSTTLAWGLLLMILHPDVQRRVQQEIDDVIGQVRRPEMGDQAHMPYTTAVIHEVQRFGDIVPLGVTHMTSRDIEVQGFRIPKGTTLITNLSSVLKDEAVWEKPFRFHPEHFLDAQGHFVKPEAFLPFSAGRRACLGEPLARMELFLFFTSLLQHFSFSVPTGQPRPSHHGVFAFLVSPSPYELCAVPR

For `CC1C/C(=C/c2cccn2C)C(=O)/C(=C/c2cccn2C)C1` (configuration not stated), the IC50 [1] was > 49.7 µM (inactive), the EC50 [2] was > 99 µM (inactive) and the IC50 [3] was 4.39 µM (active). For the same compound, the EC50 [4] was > 99 µM (inactive).

With `CCCCCc1nnc(NC(=O)Cc2cccs2)s1` the IC50 [5] was 6.28 µM (active), the IC50 [6] was 12.5 µM (active) and the IC50 [7] was 98.6 µM (active). The IC50 [8] was < 1.56 µM (active), the IC50 [9] was > 50 µM (not active) and the IC50 [10] was 21.4 µM (active). The IC50 [11] was 17.2 µM (active) and the IC50 [12] was 3.73 µM (active).

With `CC(=O)NC(c1cccs1)c1cc(F)c2cccnc2c1O` (configuration not stated) the AC50 [13] was 7.74 µM (active), the AC50 [14] was 13 µM (active) and the AC50 [15] was 1.58 µM (active). For the same compound, the AC50 [16] was 1.67 µM (active), the AC50 [17] was 2.94 µM (active) and the AC50 [18] was 5.16 µM (active).

For `O=P(O)(CP(=O)(c1ccccc1)c1ccccc1)c1ccccc1O`, the AC50 [19] was 28.2 µM (inconclusive), the AC50 [20] was 17.8 µM (inconclusive) and the AC50 [21] was 0.1 µM (inconclusive). For the same compound, the AC50 [22] was “inconclusive”.
